The kinase profiling compilation of Christmann-Franck et al. (2016)
Where “and” joins values, the source holds several entries; their conditions need not be identical. Identical values can stand only once.

Legend:
Test in all cases: radiometric filter-binding kinase assay, Kinase HotSpot
Conditions in all cases: compound 0.5 µM; ATP 10 µM
PLK3 (human) = PLK3 (human) (UniProt Q9H4B4)
EPHA8 (human) = EPHA8 (human) (UniProt P29322)
LYN (human) = LYN (human) (UniProt P07948)
MAPK12 (human) = MAPK12 (human) (UniProt P53778)
MAP3K3 (human) = MAP3K3 (human) (UniProt Q99759)
CSNK1D (human) = CSNK1D (human) (UniProt P48730)
IGF1R (human) = IGF1R (human) (UniProt P08069)
STK16 (human) = STK16 (human) (UniProt O75716)
EPHA5 (human) = EPHA5 (human) (UniProt P54756)
MAPKAPK5 (human) = MAPKAPK5 (human) (UniProt Q8IW41)
IKBKB (human) = IKBKB (human) (UniProt O14920)
FYN (human) = FYN (human) (UniProt P06241)
NTRK1 (human) = NTRK1 (human) (UniProt P04629)
SGK3 (human) = SGK3 (human) (UniProt Q96BR1)
CAMK1G (human) = CAMK1G (human) (UniProt Q96NX5)
CSNK1G3 (human) = CSNK1G3 (human) (UniProt Q9Y6M4)
EPHA6 (human) = EPHA6 (human) (UniProt Q9UF33)
CSNK1G1 (human) = CSNK1G1 (human) (UniProt Q9HCP0)
STK24 (human) = STK24 (human) (UniProt Q9Y6E0)
EPHB3 (human) = EPHB3 (human) (UniProt P54753)
MYLK (human) = MYLK (human) (UniProt Q15746)
PDGFRB (human) = PDGFRB (human) (UniProt P09619)
MAPK14 (human) = MAPK14 (human) (UniProt Q16539)
MAP4K4 (human) = MAP4K4 (human) (UniProt O95819)
FGFR3 (human) = FGFR3 (human) (UniProt P22607)
STK4 (human) = STK4 (human) (UniProt Q13043)
CAMK2D (human) = CAMK2D (human) (UniProt Q13557)
CAMK2B (human) = CAMK2B (human) (UniProt Q13554)
FER (human) = FER (human) (UniProt P16591)
WEE1 (human) = WEE1 (human) (UniProt P30291)
RAF1 (human) = RAF1 (human) (UniProt P04049)
FES (human) = FES (human) (UniProt P07332)
CDK2 CCNA2 (human) = CDK2 CCNA2 (human) (UniProt P24941+P20248)
CDC42BPB (human) = CDC42BPB (human) (UniProt Q9Y5S2)
HIPK2 (human) = HIPK2 (human) (UniProt Q9H2X6)
RPS6KB2 (human) = RPS6KB2 (human) (UniProt Q9UBS0)
TSSK1B (human) = TSSK1B (human) (UniProt Q9BXA7)
TBK1 (human) = TBK1 (human) (UniProt Q9UHD2)
CDK2 CCNE1 (human) = CDK2 CCNE1 (human) (UniProt P24941+P24864)
ZAP70 (human) = ZAP70 (human) (UniProt P43403)
CAMK1D (human) = CAMK1D (human) (UniProt Q8IU85)
TTK (human) = TTK (human) (UniProt P33981)

Chain of LYN (human) (P07948 whole entry, looked up): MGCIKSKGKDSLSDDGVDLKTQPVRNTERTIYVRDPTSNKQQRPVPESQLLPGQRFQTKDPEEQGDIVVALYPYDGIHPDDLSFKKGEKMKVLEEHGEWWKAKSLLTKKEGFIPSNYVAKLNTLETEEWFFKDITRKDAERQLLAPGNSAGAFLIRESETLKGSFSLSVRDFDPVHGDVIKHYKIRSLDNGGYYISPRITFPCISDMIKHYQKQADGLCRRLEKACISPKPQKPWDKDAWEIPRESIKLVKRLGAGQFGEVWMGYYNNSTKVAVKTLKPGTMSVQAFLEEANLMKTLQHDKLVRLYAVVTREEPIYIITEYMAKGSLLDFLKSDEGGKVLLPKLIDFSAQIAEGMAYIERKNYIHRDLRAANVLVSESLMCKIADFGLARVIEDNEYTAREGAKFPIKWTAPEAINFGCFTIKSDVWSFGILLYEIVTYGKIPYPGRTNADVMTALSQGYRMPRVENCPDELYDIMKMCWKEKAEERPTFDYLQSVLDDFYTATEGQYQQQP
Chain of FES (human) (P07332 whole entry, looked up): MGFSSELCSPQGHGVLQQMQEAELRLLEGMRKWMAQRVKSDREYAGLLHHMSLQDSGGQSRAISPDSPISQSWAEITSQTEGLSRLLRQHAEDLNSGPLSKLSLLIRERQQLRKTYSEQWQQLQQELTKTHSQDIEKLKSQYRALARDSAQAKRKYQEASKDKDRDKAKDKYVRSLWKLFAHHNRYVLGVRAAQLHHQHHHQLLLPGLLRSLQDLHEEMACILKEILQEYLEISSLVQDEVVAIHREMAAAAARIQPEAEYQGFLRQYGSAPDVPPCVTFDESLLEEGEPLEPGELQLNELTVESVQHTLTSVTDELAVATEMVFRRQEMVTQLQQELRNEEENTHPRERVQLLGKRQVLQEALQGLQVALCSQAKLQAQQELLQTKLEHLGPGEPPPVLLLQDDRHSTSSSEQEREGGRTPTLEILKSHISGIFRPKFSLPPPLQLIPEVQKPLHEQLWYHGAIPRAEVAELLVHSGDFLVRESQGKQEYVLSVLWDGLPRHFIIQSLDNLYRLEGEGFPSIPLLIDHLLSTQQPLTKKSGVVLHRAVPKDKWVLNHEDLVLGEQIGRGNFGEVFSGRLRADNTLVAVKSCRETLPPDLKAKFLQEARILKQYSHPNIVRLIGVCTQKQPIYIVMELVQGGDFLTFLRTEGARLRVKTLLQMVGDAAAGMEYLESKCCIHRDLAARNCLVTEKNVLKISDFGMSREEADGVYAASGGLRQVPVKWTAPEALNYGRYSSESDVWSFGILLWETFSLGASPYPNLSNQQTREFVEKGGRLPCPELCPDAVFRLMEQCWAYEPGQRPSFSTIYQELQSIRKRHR
Chain of CAMK1D (human) (Q8IU85 whole entry, looked up): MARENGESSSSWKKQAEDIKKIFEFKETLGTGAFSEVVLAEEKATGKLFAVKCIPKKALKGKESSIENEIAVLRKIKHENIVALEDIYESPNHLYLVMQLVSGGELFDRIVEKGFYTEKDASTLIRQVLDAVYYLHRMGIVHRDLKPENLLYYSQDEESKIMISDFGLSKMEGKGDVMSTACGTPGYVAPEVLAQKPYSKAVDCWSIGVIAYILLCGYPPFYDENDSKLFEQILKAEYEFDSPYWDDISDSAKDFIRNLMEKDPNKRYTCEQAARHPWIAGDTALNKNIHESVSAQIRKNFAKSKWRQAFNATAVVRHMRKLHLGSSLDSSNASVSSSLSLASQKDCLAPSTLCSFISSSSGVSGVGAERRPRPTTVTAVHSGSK
Chain of IKBKB (human) (O14920 whole entry, looked up): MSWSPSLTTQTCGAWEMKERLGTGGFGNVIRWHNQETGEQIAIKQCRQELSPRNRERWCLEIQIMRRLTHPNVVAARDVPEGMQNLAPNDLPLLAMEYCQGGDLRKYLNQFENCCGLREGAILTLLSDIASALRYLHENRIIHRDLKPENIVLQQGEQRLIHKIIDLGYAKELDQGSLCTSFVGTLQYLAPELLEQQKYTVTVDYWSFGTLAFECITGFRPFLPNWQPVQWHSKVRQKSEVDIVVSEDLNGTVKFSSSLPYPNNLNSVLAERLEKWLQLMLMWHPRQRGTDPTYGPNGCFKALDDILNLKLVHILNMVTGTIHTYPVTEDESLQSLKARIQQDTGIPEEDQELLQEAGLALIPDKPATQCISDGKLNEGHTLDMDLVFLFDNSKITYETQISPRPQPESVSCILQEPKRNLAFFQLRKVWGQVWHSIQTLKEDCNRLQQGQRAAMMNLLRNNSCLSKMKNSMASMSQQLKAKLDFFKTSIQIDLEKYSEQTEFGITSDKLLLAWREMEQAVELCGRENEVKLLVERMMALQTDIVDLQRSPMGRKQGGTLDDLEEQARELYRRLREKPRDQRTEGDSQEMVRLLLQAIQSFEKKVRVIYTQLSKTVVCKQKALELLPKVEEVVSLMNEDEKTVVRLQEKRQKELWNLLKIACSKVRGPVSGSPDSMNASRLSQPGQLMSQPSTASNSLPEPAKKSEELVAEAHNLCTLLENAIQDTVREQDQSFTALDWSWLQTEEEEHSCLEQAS
Chain of FER (human) (P16591 whole entry, looked up): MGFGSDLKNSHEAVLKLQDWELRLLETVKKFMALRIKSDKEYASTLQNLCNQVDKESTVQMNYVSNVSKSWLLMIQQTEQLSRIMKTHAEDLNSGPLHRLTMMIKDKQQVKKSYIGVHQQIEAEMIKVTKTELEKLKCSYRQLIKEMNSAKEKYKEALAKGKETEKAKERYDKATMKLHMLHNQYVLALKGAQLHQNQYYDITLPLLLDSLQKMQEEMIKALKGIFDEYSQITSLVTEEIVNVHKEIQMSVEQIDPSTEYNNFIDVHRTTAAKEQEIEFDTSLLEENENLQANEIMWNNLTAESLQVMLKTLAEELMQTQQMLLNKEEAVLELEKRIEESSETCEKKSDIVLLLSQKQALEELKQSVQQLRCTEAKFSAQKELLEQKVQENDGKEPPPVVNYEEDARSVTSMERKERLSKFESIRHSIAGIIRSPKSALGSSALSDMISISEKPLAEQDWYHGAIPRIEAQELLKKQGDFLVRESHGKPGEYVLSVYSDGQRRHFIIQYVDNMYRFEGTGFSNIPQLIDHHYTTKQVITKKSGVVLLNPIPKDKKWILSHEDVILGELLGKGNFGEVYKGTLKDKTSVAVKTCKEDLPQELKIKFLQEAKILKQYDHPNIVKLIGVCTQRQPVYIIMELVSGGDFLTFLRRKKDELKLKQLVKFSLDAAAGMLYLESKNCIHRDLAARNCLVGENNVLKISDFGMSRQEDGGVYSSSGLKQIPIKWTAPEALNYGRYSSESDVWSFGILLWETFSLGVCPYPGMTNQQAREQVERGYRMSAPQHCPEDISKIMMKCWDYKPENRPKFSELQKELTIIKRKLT
Chain of STK24 (human) (Q9Y6E0 whole entry, looked up): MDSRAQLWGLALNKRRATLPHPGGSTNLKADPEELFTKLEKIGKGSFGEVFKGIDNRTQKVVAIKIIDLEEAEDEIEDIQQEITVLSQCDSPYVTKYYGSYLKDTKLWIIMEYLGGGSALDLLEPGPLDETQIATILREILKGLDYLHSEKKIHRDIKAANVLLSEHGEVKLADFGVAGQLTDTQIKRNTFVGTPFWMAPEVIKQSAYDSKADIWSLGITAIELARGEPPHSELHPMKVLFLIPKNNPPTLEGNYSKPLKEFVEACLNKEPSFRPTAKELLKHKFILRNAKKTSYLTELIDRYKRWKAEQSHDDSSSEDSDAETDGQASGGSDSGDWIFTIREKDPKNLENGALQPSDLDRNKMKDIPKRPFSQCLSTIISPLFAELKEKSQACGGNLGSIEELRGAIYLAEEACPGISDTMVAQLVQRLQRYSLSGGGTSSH
Chain of STK16 (human) (O75716 whole entry, looked up): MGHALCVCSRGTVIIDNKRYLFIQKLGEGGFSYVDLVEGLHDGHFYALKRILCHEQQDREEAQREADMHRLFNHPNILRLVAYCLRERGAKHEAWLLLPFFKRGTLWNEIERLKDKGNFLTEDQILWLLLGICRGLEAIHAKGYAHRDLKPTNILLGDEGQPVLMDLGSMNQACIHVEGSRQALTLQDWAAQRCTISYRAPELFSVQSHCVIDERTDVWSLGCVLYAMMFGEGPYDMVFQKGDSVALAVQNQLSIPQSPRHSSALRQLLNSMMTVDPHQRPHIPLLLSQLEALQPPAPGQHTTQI
Chain of SGK3 (human) (Q96BR1 whole entry, looked up): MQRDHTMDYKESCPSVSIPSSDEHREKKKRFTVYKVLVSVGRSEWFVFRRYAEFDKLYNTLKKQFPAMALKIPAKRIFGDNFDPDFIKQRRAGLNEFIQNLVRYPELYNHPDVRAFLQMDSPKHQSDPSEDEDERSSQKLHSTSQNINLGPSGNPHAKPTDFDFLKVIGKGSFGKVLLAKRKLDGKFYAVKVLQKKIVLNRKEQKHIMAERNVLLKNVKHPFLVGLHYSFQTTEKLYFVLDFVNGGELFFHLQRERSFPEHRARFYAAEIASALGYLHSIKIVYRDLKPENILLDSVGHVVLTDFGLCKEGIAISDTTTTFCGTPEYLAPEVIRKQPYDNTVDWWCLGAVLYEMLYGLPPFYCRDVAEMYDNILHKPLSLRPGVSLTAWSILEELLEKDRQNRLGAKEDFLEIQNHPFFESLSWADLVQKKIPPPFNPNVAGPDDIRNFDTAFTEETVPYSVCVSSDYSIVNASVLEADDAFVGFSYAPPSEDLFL
Chain of MAPK14 (human) (Q16539 whole entry, looked up): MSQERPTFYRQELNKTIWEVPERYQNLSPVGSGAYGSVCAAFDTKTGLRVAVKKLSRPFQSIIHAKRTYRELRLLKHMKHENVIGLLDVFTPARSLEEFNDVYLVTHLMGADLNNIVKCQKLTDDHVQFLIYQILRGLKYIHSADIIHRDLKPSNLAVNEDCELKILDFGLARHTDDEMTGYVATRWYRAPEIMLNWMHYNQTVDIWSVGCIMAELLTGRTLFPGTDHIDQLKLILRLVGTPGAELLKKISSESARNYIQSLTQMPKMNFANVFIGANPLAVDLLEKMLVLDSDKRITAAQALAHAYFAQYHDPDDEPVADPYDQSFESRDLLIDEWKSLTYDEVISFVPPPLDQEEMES

## O=C1Nc2ccc(Cl)cc2/C1=C/c1cc(Cl)c(O)c(Cl)c1
PLK3 (human)
  residual activity: 98.2%
EPHA8 (human)
  residual activity: 91.5%
LYN (human)
  residual activity: 81.6% and 87.5%
MAPK12 (human)
  residual activity: 90.5%
MAP3K3 (human)
  residual activity: 101%
CSNK1D (human)
  residual activity: 89.6%
IGF1R (human)
  residual activity: 98.3%
STK16 (human)
  residual activity: 90.2%
EPHA5 (human)
  residual activity: 99.4%
MAPKAPK5 (human)
  residual activity: 92.4%
IKBKB (human)
  residual activity: 93.6%
FYN (human)
  residual activity: 73%
NTRK1 (human)
  residual activity: 87.4%
SGK3 (human)
  residual activity: 98.6%
CAMK1G (human)
  residual activity: 96.6%
CSNK1G3 (human)
  residual activity: 93%
EPHA6 (human)
  residual activity: 72.8%
CSNK1G1 (human)
  residual activity: 89%
STK24 (human)
  residual activity: 104%
EPHB3 (human)
  residual activity: 91%
MYLK (human)
  residual activity: 62.3%
PDGFRB (human)
  residual activity: 76.9%
MAPK14 (human)
  residual activity: 74.6%
MAP4K4 (human)
  residual activity: 4.48%
FGFR3 (human)
  residual activity: 94%
STK4 (human)
  residual activity: 32.5%
CAMK2D (human)
  residual activity: 80.2%
CAMK2B (human)
  residual activity: 92%
FER (human)
  residual activity: 92.1%
WEE1 (human)
  residual activity: 79.1%
RAF1 (human)
  residual activity: 6.93%
FES (human)
  residual activity: 93.7%
CDK2 CCNA2 (human)
  residual activity: 99.5%
CDC42BPB (human)
  residual activity: 91.4%
HIPK2 (human)
  residual activity: 122%
RPS6KB2 (human)
  residual activity: 98.2%
TSSK1B (human)
  residual activity: 88.2%
TBK1 (human)
  residual activity: 86.8%
CDK2 CCNE1 (human)
  residual activity: 90%
ZAP70 (human)
  residual activity: 95%
CAMK1D (human)
  residual activity: 104%
TTK (human)
  residual activity: 84.4%

## CNc1cc2c(Nc3cccc(Br)c3)ncnc2cn1
PLK3 (human)
  residual activity: 96.4%
EPHA8 (human)
  residual activity: 87.9%
LYN (human)
  residual activity: 63.9% and 81.9%
MAPK12 (human)
  residual activity: 93.6%
MAP3K3 (human)
  residual activity: 73.3%
CSNK1D (human)
  residual activity: 98.7%
IGF1R (human)
  residual activity: 115%
STK16 (human)
  residual activity: 98.6%
EPHA5 (human)
  residual activity: 106%
MAPKAPK5 (human)
  residual activity: 99.3%
IKBKB (human)
  residual activity: 98.2%
FYN (human)
  residual activity: 91.7%
NTRK1 (human)
  residual activity: 95.9%
SGK3 (human)
  residual activity: 96.8%
CAMK1G (human)
  residual activity: 97.9%
CSNK1G3 (human)
  residual activity: 86.3%
EPHA6 (human)
  residual activity: 70%
CSNK1G1 (human)
  residual activity: 81.7%
STK24 (human)
  residual activity: 101%
EPHB3 (human)
  residual activity: 92.7%
MYLK (human)
  residual activity: 79.5%
PDGFRB (human)
  residual activity: 86.4%
MAPK14 (human)
  residual activity: 90%
MAP4K4 (human)
  residual activity: 86.9%
FGFR3 (human)
  residual activity: 85.4%
STK4 (human)
  residual activity: 95.4%
CAMK2D (human)
  residual activity: 97.9%
CAMK2B (human)
  residual activity: 95.8%
FER (human)
  residual activity: 97.1%
WEE1 (human)
  residual activity: 75.9%
RAF1 (human)
  residual activity: 87.8%
FES (human)
  residual activity: 96.9%
CDK2 CCNA2 (human)
  residual activity: 106%
CDC42BPB (human)
  residual activity: 107%
HIPK2 (human)
  residual activity: 98.4%
RPS6KB2 (human)
  residual activity: 99.8%
TSSK1B (human)
  residual activity: 60.2%
TBK1 (human)
  residual activity: 94.5%
CDK2 CCNE1 (human)
  residual activity: 88.6%
ZAP70 (human)
  residual activity: 99.1%
CAMK1D (human)
  residual activity: 92.5%
TTK (human)
  residual activity: 100%
